Several values for one entry are separate records, joined by “and”; a condition that tells them apart may be missing. Equal values may be shown once.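 Values below derive from 48-hour exposures of cells grown in 96-well plates, with endpoints linearly interpolated between the two concentrations bracketing the appropriate inhibition level. Here, GI50 denotes the concentration required for 50% inhibition of growth. TGI: concentration producing complete growth inhibition.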

We go through 18 compounds from PubChem BioAssay (NCI).

What all share (test): DTP human tumour cell line panel, 48 h
For assay [1], the system named is SW-620 colon.
Assay [2] deals with OVCAR-8 ovarian.
Assay [3] concerns MOLT-4 leukemia.
Assay [4] relates to SF-295 CNS.
Assay [5] relates to ACHN renal.
Assay [6] has as its system UACC-257 melanoma.
Assay [7] concerns MDA-N.
The test system of assay [8] is NCI-H226 lung.
Assay [9] deals with SR leukemia.
The subject of assay [10] is MDA-MB-231 breast.
Assay [11] relates to IGROV1 ovarian.
Assay [12] deals with NCI-H522 lung.
Assay [13] relates to HCC-2998 colon.
Assay [14] concerns A498 renal.
The test system of assay [15] is HL-60(TB) leukemia.
Assay [16] relates to CCRF-CEM leukemia.

In the case of `CC(O)(Cc1ccccc1C#N)Cc1ccccc1C#N`, the TGI in [1], in [2], in assay [3], in assay [4], in assay [5] and in assay [6] was more than 100 µM in each case. Further, the total growth inhibition concentration (TGI) in assay [7], in assay [8], in assay [9], in assay [10], in assay [11] and in [12] was more than 100 µM each time. Also, the figures for the TGI in assay [13], in [14] and in assay [15] were more than 100 µM, more than 100 µM and 97.7 µM, respectively.
Regarding `COC(=O)/C(C#N)=C(\Nc1ccccc1)N1CCOCC1`, the TGI in assay [1], in assay [2], in assay [3], in [4], in [5] and in assay [6] was more than 100 µM each time. Besides, the TGI in [7], in assay [8], in [9], in assay [10], in [11] and in [12] was more than 100 µM each time. Moreover, the TGI in assay [13], in [14] and in [15] was more than 100 µM in each case.
On to `O=C(O)CCCC(=O)Nn1c(Cc2ccc(Cl)cc2)n[nH]c1=O`, for which the TGI in assay [1], in [2], in [3], in assay [4], in assay [5] and in [6] was more than 100 µM each time. Also, the TGI in [7], in [8], in [9], in assay [10], in [16] and in assay [11] was more than 100 µM throughout. Further, the TGI in assay [12], in assay [14] and in assay [15] was more than 100 µM each time.
Regarding `CN(C)c1ccc(C=Nc2ccc(-c3nc4ccccc4[nH]3)cc2)cc1`, the TGI in [1], in [2], in assay [3], in assay [4], in assay [5] and in assay [6] was more than 100 µM throughout. Besides, the TGI was more than 100 µM in [7]; more than 100 µM in assay [8]; 65.1 µM in [9]; more than 100 µM in [10]; more than 100 µM in assay [16]; more than 100 µM in assay [11]. In addition, the values for the TGI in [12], in assay [14] and in assay [15] were more than 100 µM, more than 100 µM and 53.3 µM, respectively.
Take `CC(ON(C(c1ccccc1)C(C)C)C(C)(C)C)c1ccccc1` (centres undefined): the TGI in assay [1] came to 31.6 µM; in assay [2] it was 51.7 µM; in assay [3], 35.9 µM; in [4] it was 28.5 µM; in assay [5], 29.3 µM; in assay [6] it was 47.1 µM. Besides, the TGI came out at 81.3 µM in assay [7]; 36.6 µM in assay [8]; 67.6 µM in assay [9]; 39.3 µM in assay [10]; 39.3 µM in [16]; 59.2 µM in assay [11]. Besides, the TGI in [12] came out at 44.4 µM; in [13], 33.7 µM; in [15] it was 36.7 µM.
In the case of `O=C1NC(N2CCOCC2)=N/C1=C\c1ccc(Cl)cc1`, the TGI in assay [1], in [2], in [3], in assay [4], in [5] and in assay [6] was more than 100 µM throughout. In addition, the TGI in assay [7], in [8], in assay [9], in [10], in assay [16] and in assay [11] was more than 100 µM in each case. In addition, the TGI in assay [12], in [13] and in assay [15] was more than 100 µM in each case.
Regarding `CC(=O)Nc1ccc(NCC(=O)Nn2cnc3ccc(S(=O)(=O)Nc4ccc(NC(C)=O)cc4)cc3c2=O)cc1`, the total growth inhibition concentration (TGI) in assay [1], in assay [2], in assay [3], in assay [4], in [5] and in assay [6] was more than 100 µM each time. In addition, the TGI in assay [7], in [8], in assay [9], in assay [10], in assay [16] and in assay [11] was more than 100 µM throughout. Also, the TGI in assay [12], in assay [13] and in assay [15] was more than 100 µM each time.
`COc1cc(OC)c2c(c1)OC(c1ccccc1)CC2=O` (centres undefined): the TGI in [1], in assay [2], in [3], in assay [4], in assay [5] and in [6] was more than 10 µM in each case. Moreover, the TGI in assay [7], in assay [8], in assay [9], in assay [10], in assay [16] and in [11] was more than 10 µM throughout. For the same compound, the TGI in [12], in assay [13] and in assay [15] was more than 10 µM throughout.
`Cc1cc2c(c(C=Nc3ccccc3O)c1)OC1(C=C2)Oc2ccccc2C(=O)N1C` (centres undefined): the TGI in assay [1] stood at 86.7 µM; in [2], 43.6 µM; in assay [3] it was 51 µM; in [4] it was 68.2 µM; in assay [5], 40.3 µM; in [6] it was 30.8 µM. Also, the TGI in assay [7] came out at 77.3 µM; in assay [8] it was 36.4 µM; in assay [9] it was 48 µM; in [10] it was 37.5 µM; in [16] it was 46.3 µM; in [11] it was 58.5 µM. The concentration for total growth inhibition (TGI) in assay [13] is 29.2 µM; in [14] it was 56.1 µM; in assay [15], more than 100 µM.
Consider `CN(C)CCCc1cccc2[nH]c3c(c12)CN(C)CC3`, for which the TGI in [1], in assay [2], in assay [3], in [4], in [5] and in assay [6] was more than 100 µM in each case. Besides, the TGI in [7] was more than 100 µM; in [8] it was more than 100 µM; in assay [9], 74.3 µM; in [10], more than 100 µM; in assay [16] it was more than 100 µM; in assay [11], more than 100 µM. Also, the TGI in assay [12], in assay [13] and in [15] was more than 100 µM in each case.
Take `CCOc1cc(C2SCC(=O)N2c2ccc(Oc3ccc(Cl)cc3)c(Cl)c2)ccc1O` (centres undefined): the TGI worked out at 37.7 µM in assay [1]; 38.2 µM in [2]; 64.4 µM in [3]; 34.1 µM in assay [4]; 31.2 µM in assay [5]; 33.3 µM in assay [6]. Also, the TGI amounted to 41.9 µM in assay [7]; 31.1 µM in [8]; 25.2 µM in assay [9]; 36 µM in assay [10]; 49.5 µM in assay [16]; 32 µM in [11]. Moreover, the TGI worked out at 28.1 µM in assay [12], 35.8 µM in assay [13] and 47 µM in [15].
Turning to `Cc1ccn2c(=O)cc(CN3CCOCC3)nc2c1`, the TGI in assay [1], in assay [2], in [3], in assay [4], in assay [5] and in [6] was more than 100 µM each time. Also, the TGI in assay [7], in [8], in [9], in assay [10], in assay [16] and in [11] was more than 100 µM in each case. Further, the TGI in assay [12], in [13] and in assay [15] was more than 100 µM throughout.
Consider `Oc1ccc(O)c(CNc2ccc(C(O)C(F)(F)F)cc2)c1` (centres undefined), for which the TGI was more than 100 µM in assay [1]; more than 100 µM in assay [2]; 29.7 µM in assay [3]; 32.5 µM in [4]; 26.6 µM in assay [5]; 34.6 µM in [6]. The TGI in assay [7] came out at 25.9 µM; in [8] it was 84.1 µM; in [9], 83.6 µM; in [10], 33.7 µM; in assay [16], 33.5 µM; in assay [11], 30.1 µM. For the same compound, the results for the TGI in assay [12], in [14] and in assay [15] were 5.67 µM, more than 100 µM and 16.4 µM, respectively.
Turning to `CC(=O)O[C@H]1C(=O)[C@@]2(C)[C@H]([C@H](OC(=O)c3cccc([N+](=O)[O-])c3)[C@]3(O)C[C@H](OC(=O)[C@H](O)[C@@H](NC(=O)c4ccccc4)c4ccccc4)C(C)=C1C3(C)C)[C@]1(OC(C)=O)CO[C@@H]1C[C@@H]2O`, the TGI in assay [1] was more than 25 µM; in assay [2], more than 25 µM; in assay [3] it was more than 20.3 µM; in assay [4], 0.15 µM; in assay [5], more than 25 µM; in assay [6] it was more than 25 µM. Besides, the TGI was 0.0115 µM in assay [7]; more than 25 µM in assay [8]; 0.113 µM in assay [9]; more than 25 µM in assay [10]; more than 25 µM in [11]; 0.0161 µM in [12]. The results for the TGI in assay [13], in assay [14] and in assay [15] were more than 25 µM, 18.5 µM and less than 0.0025 µM, respectively.
For the compound `O=[N+]([O-])c1cccc2nc3ccccc3c(NCCCn3ccnc3[N+](=O)[O-])c12`, the TGI was 0.103 µM in [1]; 0.0126 µM and 0.0167 µM in assay [2]; 0.214 µM and 0.0415 µM in assay [4]; 0.0208 µM and 0.0207 µM in assay [6]; 0.000244 µM in assay [7]; 0.00362 µM and 0.0351 µM in [8]. For the same compound, the TGI was 0.131 µM in [9]; 0.0119 µM in [10]; 0.212 µM and 0.412 µM in assay [11]; 0.0167 µM and 0.0252 µM in [12]; 0.000515 µM in assay [13]; 0.0168 µM and 0.0332 µM in [15]. Further, the GI50 is 33.4 µM in [5], less than 0.0001 µM in assay [9], 0.0218 µM in assay [16] and 0.0419 µM in assay [11].
As for `COc1ccc(N=Nc2c(C)c(C#N)c(=S)n(C3OC(CO)C(O)C(O)C3O)c2-c2ccccc2)cc1` (centres undefined), the TGI was more than 100 µM in assay [1]; 46.5 µM in assay [3]; 98.5 µM in [4]; more than 100 µM in [5]; more than 100 µM in [6]; more than 100 µM in assay [7]. The TGI in [9] was more than 100 µM; in [10], more than 100 µM; in assay [16] it was more than 100 µM; in assay [11] it was more than 100 µM; in assay [13] it was more than 100 µM; in [14], 44.5 µM. The compound also gave a TGI in assay [15] of more than 100 µM.
As to `O=c1cc(N=Nc2ccc(Br)cc2)[nH]c(=S)[nH]1`, the TGI was 64.5 µM in [1]; 51.3 µM in assay [2]; 63.3 µM in assay [3]; more than 100 µM in assay [4]; 40.8 µM in [5]; 67.7 µM in assay [6]. Besides, the TGI in [7] is more than 100 µM; in [8] it was more than 100 µM; in [9], 74.1 µM; in [10], 34.3 µM; in assay [16], 54.5 µM; in assay [11], more than 100 µM. The TGI in [12] worked out at 38 µM; in assay [13] it was 38.6 µM; in [15], 58.6 µM.
On to `CCCCNC(=O)c1cc2c(cc1Cl)Sc1nccn1S2(=O)=O`, for which the TGI in assay [1], in [2], in [3], in assay [4], in [5] and in [6] was more than 100 µM throughout. Further, the TGI in assay [7], in [9], in assay [10], in [16], in assay [11] and in assay [12] was more than 100 µM in each case. For the same compound, the TGI in assay [13], in assay [14] and in assay [15] was more than 100 µM each time.

In general, TGI refers to the concentration giving total growth inhibition. Read a high TGI as lower sensitivity of the cells. The GI50 is the concentration that inhibits growth by half.
